Ends that are not written are not given here.
Tests used:
[1] = system: methicillin resistant Staphylococcus aureus (MRSA) biofilm; conditions: approximate peptide concentration […] (around 3 μg/ml); compared to untreated samples
Procedure, shortened: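 Static biofilm assay: 1/100 dilutions of overnight cultures grown in BM2 medium (pH 7, glucose, Casamino Acids) or Luria Broth with peptide added at time zero. After 22–46 h, adherent biofilm was stained with crystal violet and read at 595 nm. Some peptides were also tested on K. pneumoniae under flow in a Bioflux system.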

[2] = system: LPS-stimulated human peripheral blood mononuclear cells (IL1-β); type: cell-based; conditions: Table 12, cells stimulated with 10 ng/ml LPS; for IL1β Production: LPS alone 1313 (HH2 derivatives), 1927 (1018 derivatives), 2455 (1002 and hybrid peptides) pg/ml
[3] = system: human peripheral blood mononuclear cells (MCP-1); assay: SPOT-synthesized derivative screen: production of chemokine MCP-1; type: cell-based; conditions: Table 12, No LPS, human PBMC, peptide at ~18-24 μM; for MCP1: background subtracted 139 (HH2 derivatives), 170 (1018 derivatives), 242 (1002 and hybrid peptides) pg/ml
Procedure, shortened: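 PBMC from heparinized healthy-donor venous blood, Ficoll-separated, cultured at 0.75 to 1×10^6 cells/ml, 37 °C, 5% CO2, under the treatment regimens. MCP-1 in cell-free supernatants measured by capture ELISA.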

Substance | % Biofilm inhibition [1] [%] | Fold change in IL1β relative to no peptide LPS stimulated cells [2] | IL1β Production [2] [pg/mL] | Fold increase in MCP1 cf. untreated cells [3] | MCP1 [3] [pg/mL]
1018-W5: single substituted 1018 peptide (VRLIWAVRIWRR-NH2) [Peptide 1018-W5] | 55 | 0.10 | 127 | 0.8 | -28
1002-A9: single substituted 1002 peptide (VQRWLIVWAIRK-NH2) [Peptide 1002-A9] | 58 | 0.05 | 127 | 14.4 | 3239.9
1018-Q10: single substituted 1018 peptide (VRLIVAVRIQRR-NH2) [Peptide 1018-Q10] | 38 | 0.12 | 154 | 0.7 | -54
HH2-G12: single substituted HH2 peptide (VQLRIRVAVIRG-NH2) | 69 | 1.09 | 1433 | 68 | 11442
1002-K3: single substituted 1002 peptide (VQKWLIVWRIRK-NH2) [Peptide 1002-K3] | 61 | 0.06 | 137 | 3.4 | 576.2
1002-G9: single substituted 1002 peptide (VQRWLIVWGIRK-NH2) [Peptide 1002-G9] | 44 | 0.05 | 127 | 2.8 | 444.4
1002-R12: single substituted 1002 peptide (VQRWLIVWRIRR-NH2) [Peptide 1002-R12] | 62 | 0.05 | 127 | 2.1 | 270.8
1018-G11: single substituted 1018 peptide (VRLIVAVRIWGR-NH2) [Peptide 1018-G11] | 40 | 0.91 | 1189 | 48 | 7922
1002-K8: single substituted 1002 peptide (VQRWLIVKRIRK-NH2) [Peptide 1002-K8] | 0 | 0.66 | 1632 | 0.9 | -36.2
1018-W4: single substituted 1018 peptide (VRLWVAVRIWRR-NH2) [Peptide 1018-W4] | 67 | 0.14 | 182 | 1.2 | 29
HH2-R7: single substituted HH2 peptide (VQLRIRRAVIRA-NH2) | 3 | 1.49 | 1959 | 1.6 | 98
1018-W9: single substituted 1018 peptide (VRLIVAVRWWRR-NH2) [Peptide 1018-W9] | 69 | 0.10 | 127 | 2.5 | 247
HH2-A7: single substituted HH2 peptide (VQLRIRAAVIRA-NH2) | 57 | 1.30 | 1713 | 1.3 | 59
1002-G5: single substituted 1002 peptide (VQRWGIVWRIRK-NH2) [Peptide 1002-G5] | 59 | 0.25 | 621 | 0.9 | -36.2
HH2-W7: single substituted HH2 peptide (VQLRIRWAVIRA-NH2) | 70 | 0.88 | 1154 | 9.2 | 1395
HH2-K10: single substituted HH2 peptide (VQLRIRVAVKRA-NH2) | 68 | 1.43 | 1878 | 5.7 | 797
1018-V4: single substituted 1018 peptide (VRLVVAVRIWRR-NH2) [Peptide 1018-V4] | 75 | 0.11 | 144 | 1.2 | 29
HH2-G5: single substituted HH2 peptide (VQLRGRVAVIRA-NH2) | 34 | 1.27 | 1672 | 2.9 | 321
1018-G2: single substituted 1018 peptide (VGLIVAVRIWRR-NH2) [Peptide 1018-G2] | 59 | 0.10 | 127 | 2.6 | 267
1018-Q5: single substituted 1018 peptide (VRLIQAVRIWRR-NH2) [Peptide 1018-Q5] | 13 | 1.03 | 1354 | 0.7 | -54
HH2-Q1: single substituted HH2 peptide (QQLRIRVAVIRA-NH2) | 57 | 0.89 | 1171 | 65 | 10838
HH2-G9: single substituted HH2 peptide (VQLRIRVAGIRA-NH2) | 59 | 1.04 | 1363 | 3.0 | 342
1018-K2: single substituted 1018 peptide (VKLIVAVRIWRR-NH2) [Peptide 1018-K2] | 68 | 0.10 | 127 | 1.5 | 92
1018-I12: single substituted 1018 peptide (VRLIVAVRIWRI-NH2) [Peptide 1018-I12] | 57 | 0.24 | 314 | 19 | 3003
1002-I5: single substituted 1002 peptide (VQRWIIVWRIRK-NH2) [Peptide 1002-I5] | 84 | 0.08 | 186 | 24.2 | 5633.1
1002-W2: single substituted 1002 peptide (VWRWLIVWRIRK-NH2) [Peptide 1002-W2] | 61 | 0.05 | 127 | 11.8 | 2611.5
1002-A7: single substituted 1002 peptide (VQRWLIAWRIRK-NH2) [Peptide 1002-A7] | 58 | 0.05 | 132 | 0.9 | -36.2
HH2-W9: single substituted HH2 peptide (VQLRIRVAWIRA-NH2) | 75 | 0.80 | 1050 | 31 | 4995
1002-K10: single substituted 1002 peptide (VQRWLIVWRKRK-NH2) [Peptide 1002-K10] | 0 | 0.05 | 127 | 0.9 | -32.5
HH2-Q7: single substituted HH2 peptide (VQLRIRQAVIRA-NH2) | 21 | 1.00 | 1316 | 3.9 | 488

From patent US20190315823A1, “SMALL CATIONIC ANTI-BIOFILM AND IDR PEPTIDES” (priority 2013, published 2019)
